For four compounds, Ki results are on record in ChEMBL document CHEMBL1128970, “Synthesis and characterization of the second cysteine-rich region of mouse skin PKCGh” (Bioorg Med Chem Lett, 1996).

Experiment [1] deals with T1, Protein kinase C eta type (Mus musculus, UniProt P23298). The experiment is described as follows: Inhibition of [3H]- PDBu binding to peptide D of mouse skin Protein kinase C eta (inactive).
Experiment [2] concerns the target T2, Protein kinase C gamma type (Rattus norvegicus, UniProt P63319). Description: Inhibition of [3H]- PDBu binding to peptide C, rat brain PKC gamma (inactive).
Experiment [3] concerns the target T2, Protein kinase C gamma type. Description: Inhibition of [3H]- PDBu binding to peptide C, rat brain PKC gamma.
For experiment [4], the target named is T1, Protein kinase C eta type. The experiment is described as follows: Inhibition of [3H]- PDBu binding to peptide D of mouse skin Protein kinase C eta.

As usually defined, the Ki is the dissociation constant of the complex between target and ligand, obtained from inhibition or displacement.

T1 sequence (P23298 whole entry): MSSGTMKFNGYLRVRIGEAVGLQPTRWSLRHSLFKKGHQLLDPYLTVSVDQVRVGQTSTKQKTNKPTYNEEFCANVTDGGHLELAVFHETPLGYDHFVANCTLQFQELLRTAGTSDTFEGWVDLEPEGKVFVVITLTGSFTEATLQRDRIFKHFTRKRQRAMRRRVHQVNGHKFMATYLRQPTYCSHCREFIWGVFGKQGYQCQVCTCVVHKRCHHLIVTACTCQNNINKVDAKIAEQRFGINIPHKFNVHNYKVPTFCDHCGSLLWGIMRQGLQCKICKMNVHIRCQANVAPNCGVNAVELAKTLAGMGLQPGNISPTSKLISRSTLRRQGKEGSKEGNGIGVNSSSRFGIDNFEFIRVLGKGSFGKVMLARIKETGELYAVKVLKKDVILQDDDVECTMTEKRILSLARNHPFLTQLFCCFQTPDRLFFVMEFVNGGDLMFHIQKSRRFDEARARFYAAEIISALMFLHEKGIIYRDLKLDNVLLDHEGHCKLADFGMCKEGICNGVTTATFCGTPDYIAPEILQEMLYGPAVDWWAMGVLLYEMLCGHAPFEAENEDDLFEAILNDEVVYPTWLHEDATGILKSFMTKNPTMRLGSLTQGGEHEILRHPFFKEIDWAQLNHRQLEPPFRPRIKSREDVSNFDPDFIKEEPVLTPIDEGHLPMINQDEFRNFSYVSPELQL

For `CCCCCCCCCC(=O)O[C@@H]1[C@@H](C)[C@@]2(O)[C@@H](C=C(CO)C[C@@]3(O)C(=O)C(C)=C[C@@H]23)[C@@H]2C(C)(C)[C@]12OC(=O)CCCCCCCCC`, the Ki result in experiment [1] and in experiment [2] was “Not Active” each time.
Regarding `CCCC(=O)O[C@@H]1[C@@H](C)[C@@]2(O)[C@@H](C=C(CO)C[C@]3(O)C(=O)C(C)=C[C@@H]23)[C@@H]2C(C)(C)[C@]12OC(=O)CCC`, the inhibition constant (Ki) in experiment [3] turned out to be 52.9 nM; in experiment [4], 0.6 nM.
The like results for `C=C[C@@]1(C)CC[C@](C)(C(C)C)c2cc3c4c(c[nH]c4c21)C[C@@H](CO)NC(=O)[C@H](C(C)C)N3C` were, in that order, 2 nM and 0.1 nM.
As to `CCCCCCCC(=O)OCC(CO)OC(=O)CCCCCCC` (configuration not stated) [MONOCTANOIN COMPONENT C], affinity in experiment [4] was put at a Ki of 14.5 nM. In other words, the double-digit nanomolar range.
